Test results taken from patent publication US9045563B2, “CXC chemokine receptor 4 (CXCR4) antagonistic polypeptide” (priority 2007, dated 2015).
Ends that are not written are not given here.

How the values were obtained:
CXCR4 = CXCR4 (Homo sapiens, UniProt P61073); set-up: expressed in transfected cells; conditions: read-out: dissociation constant of fluorescent CXCL12 for the CXCR4 receptor; cited from earlier work
X4 tropic HIV-1 NL4-3 [1] = conditions: TZM-bl cells; for IC50: read-out: IC50 ± SEM, X4 tropic HIV-1 NL4-3, two days post infection, synthetic peptides
Method: HIV inhibition test were performed by seeding 4000 P4-R5 MAGI cells (P. Charneau et al., J. Mol. Biol. 241: 651, 1994) in 100 μl of DMEM (10% FCS, 100 U/ml penicillin G, and 100 μg/ml streptomycin sulfate). P4-R5 cells are stably transfected with an LTR-lacZ cassette and upon successful infection by HIV-1 will express—galactosidase in a Tat-dependent manner, which can be detected in a chemiluminescence test. On the following day, aliquots of the fractions were added. Therefor the lyophilized fractions were resuspended in 80 μl of DMEM, and 25 μl each thereof was pipetted to P4-R5 cells, incubated at 37° C. for 1 hour and subsequently infected with HIV-1 NL4—3 (1 ng of p24 antigen). Virus stocks were obtained by transient infection of 293T cells with proviral DNA by the calcium phosphate method (CalPhos™ Mammalian Transfection Kit, Clontech). Virus stocks were harvested 48 hours post transfection, filtrated and used for infection. Three days post infection, β-galactosidase activity in infected P4-R5 cells was detected using GalScreen assay (TROPIX) as recommended by the manufacturer. Briefly, supernatant was removed, 40 μl of a 1:1 dilution of PBS/GalScreen+substrate was added, followed by incubation at room temperature for 30 min. Then 30 μl of the lysates were transferred into 96 well lumiplates. Subsequently, the lumines-cence was detected as relative light units per second in a luminometer (Berthold, ORION). From all measurements, the mean β-galactosidase background activity of non-infected control cells was subtracted. % infection values for each infection were calculated relative to no peptide containing controls (100%). The enzyme activities in measurements without ALB408-423 were set at 100%, and all other values were based thereon. The final purification (7th step) was examined under exactly the same conditions in TZM-bl cells (X. Wei et al., Antimicrob. Agents Chemother. 46: 1896, 2002).
1.6 mg of fraction 31 from the 7th step in Example 1 was dissolved in 160 μl of DMEM. Subsequently, 10 μl of serial dilutions of fraction 31 containing ALB408-423 were added to 60 μl of TZM-bl cells (60 μl) and infected with 1 ng of p24 antigen HIV-1 NL4—3 in a total volume of 100 μl. Three days later, infection rates were determined in a GalScreen assay (see Example 1).
(§1) 5000 TZM-bl cells were seeded in 100 μl of DMEM (10% FCS, 100 U/ml of penicillin G and 100 μg/ml of streptomycin sulfate). ALB408-423 was dissolved in PBS (10 mg/ml). One day later, 20 μl serial dilutions of ALB408-423 in PBS were added to cells and cells were subsequently infected with 0.5 ng of p24 antigen HIV-1 in a total volume of 200 μl. HIV-1 molecular clones differing in coreceptor tropism were used and generated as described (Papkalla et al., J. Virol. 76: 8455-9, 2002).
Table 1. Antiviral activity of various ALB fragments against X4 tropic HIV-1 NL4-3 infection. TZM-bl cells containing serial dilutions of synthetic peptides were infected with HIV-1 NL4-3 and infection rates were determined and calculated as described in example 1 and 2 at two days post infection. IC50 values were determined using the GraphPad Prism software package.
Various ALB408-423 derivatives containing N or C terminal deletions or amino acid substitutions (Table 1) were chemically synthesized and lyophilized peptides were dissolved in PBS. The antiviral activity was analyzed in TZM-bl cells using X4 tropic HIV-1 NL4-3 as described (example 4).

[2] = test system: dual tropic (CXCR4 and CCR5 using) variant 92ht593.1; test: Infection of TZM-bl cells by dual tropic HIV-1, GalScreen; type: cell-based; conditions: 100 μM peptide
Method: as §1
(§2) FIG. 3: Chemically synthesized ALB408-423 specifically blocks X4 tropic HIV-1 infection. TZM-bl cells containing indicated dilutions of peptide were infected with HIV-1 variants differing in their coreceptor tropism. 3 days later Gal Screen assay was used to measure infection rates. […] B) Infection rates in the presence of 500 μg/ml ALB408-423 showing that the peptide specifically blocks X4 but not R5 tropic HIV-1 infection. Data shown are mean values±standard deviation derived from triplicate infections relative to PBS containing cells (100% infection).
(§3) After 3 days, infection was detected using GalScreen assay (TROPIX) (example 1). […] In contrast, CCR5 tropic HIV-1 variants were not inhibited even in the presence of very high doses of ALB408-423 (500 μg/ml) (FIG. 3B). Due to the specific inhibition of the infection caused by X4-tropic HIV-1 variants, it is to be assumed that ALB408-423 interacts with the chemokine receptor CXCR4.
(§4) Virus stocks were first titrated on TZM-bl cells. Then TZM-bl cells containing 100 μM of peptides were infected with infectivity normalized amounts of X4, dualtropic (X4/R5) or R5 tropic HIV-1.
(§5) FIG. 10. ALB408-423 and truncated ALB derivatives specifically block X4 tropic HIV-1 infection. TZM-bl cells either containing PBS or 100 μM of indicated peptides were infected with normalized infectivities of X4, dualtropic or R5 tropic HIV-1 clones. Infection rates were measured 2 days post infection using the GalScreen assay. Shown are mean values (% of PBS treated control)±standard deviations derived from triplicate measurements.

[3] = test system: CCR5 tropic HIV-1 variants; test: Infection of TZM-bl cells by R5 tropic HIV-1 variants, GalScreen; type: cell-based; conditions: 100 μM peptide
Method: as §1, §2, §3, §4, §5

[4] = test system: X4 tropic HIV-1 variants NL4-3, P51-Sc, P59-S/27 and P34-S; conditions: TZM-bl cells, 100 μM peptide
Method: as §1, §2, §3, §4, §5

X4 tropic HIV-1 NL4-3 [5] = test: X4 tropic HIV-1 infection and replication in PBMC, p24 antigen ELISA; type: cell-based; conditions: 100 μM peptide, day 6 post infection
Method: To analyze the effect of ALB408-423 and derivatives thereof in relevant primary cells, peripheral blood mononuclear cells were isolated from Buffy coat derived from the DRK-Blutspendedienst Baden-Württemberg-Hessen using Ficoll density centrifugation. 1×10^6 PBMC per ml were stimulated with 1 μg/ml phytohemagglutinine (PHA, Oxoid, #3085280) and 10 ng/ml Interleukin 2 (IL-2, Strathmann, #9511192) for three days. Thereafter cells were pelleted and resuspended in IL-2 containing medium. 1.5×10^5 PBMC (250 μl) were seeded in 96 well dishes, peptides were added and cells were infected with […] p24 antigen of X4 tropic HIV-1 NL4-3. Supernatants containing progeny virus were taken at day 1, 3 and 6 post infection. Virus production was measured by p24 antigen ELISA (SAIC-Frederick, Inc [AIDS & Cancer virus program]). […] In the presence of 20 μM peptides virus replication was severely impaired.
FIG. 11. ALB408-423 and derivatives inhibit X4 tropic HIV-1 infection of peripheral blood mononuclear cells (PBMC). Cells were incubated with indicated concentrations of ALB408-423 or truncated variants and infected with X4 tropic HIV-1. Supernatants obtained after 6 days were analyzed by p24 ELISA. Shown are mean p24 antigen values (ng/ml) derived from triplicate infections±standard deviation.

Chain of CXCR4 (P61073 whole entry): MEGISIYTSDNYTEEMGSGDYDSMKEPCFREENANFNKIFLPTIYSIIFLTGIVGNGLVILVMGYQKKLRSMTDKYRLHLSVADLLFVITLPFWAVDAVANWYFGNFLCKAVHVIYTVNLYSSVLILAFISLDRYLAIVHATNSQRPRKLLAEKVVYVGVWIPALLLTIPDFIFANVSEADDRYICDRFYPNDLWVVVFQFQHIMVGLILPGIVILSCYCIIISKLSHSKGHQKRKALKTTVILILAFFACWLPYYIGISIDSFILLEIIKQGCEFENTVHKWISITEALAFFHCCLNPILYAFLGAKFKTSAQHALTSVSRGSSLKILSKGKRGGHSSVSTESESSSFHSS

Substance	antiviral activity against X4 tropic HIV-1 NL4-3 (words, SAR study) (X4 tropic HIV-1 NL4-3 [1])	IC50 (X4 tropic HIV-1 NL4-3 [1]) [µM]	other results
fluorescent CXCL12: synthesized human chemokine CXCL12 labeled with Texas Red, fluorescent CXCR4 ligand			Kd (CXCR4): 0.055 ± 0.015 µM
LVRYTKK [ALB408-414, LVRYTKK]	remained active		
KVPQVSTPTL [ALB414-423, KVPQVSTPTL]	severely impaired or abrogated antiviral activity		
LVRYTKKVPQVSTP [ALB408-421, LVRYTKKVPQVSTP]	remained active		
LLVRYTKKVPQVS [ALB407-419, LLVRYTKKVPQVS]	reduced its antiviral activity		
LVRYTKKVPQV [ALB408-418, LVRYTKKVPQV]	remained active		
LVAYTKKV [ALB-R410A, LVAYTKKV]		> 1000	
LARYTKKV [ALB-V409A, LARYTKKV]		32.9	
LVRYTKAV [ALB-K414A, LVRYTKAV]		31	
ALB408-416: SEQ ID No 15; C terminal truncation of ALB408-423, sequence not printed in Table 1 (LVRYTKKVP; listed as Homo sapiens)	remained active		
LVRYAKKV [ALB-T412A, LVRYAKKV]		11.2 ± 0.1	inhibition of dualtropic HIV-1 clone 92ht593.1 [2]: only moderately; effect on R5 tropic HIV-1 infection [3]: no effect; block of infection by X4 tropic HIV-1 clones (NL4-3, P51-Sc, P34-s) [4]: almost completely
LVRATKKV [ALB-Y411A, LVRATKKV]		91	
LVRYTKKVPQ [ALB408-417, LVRYTKKVPQ]	remained active	19.9 ± 4.1	
LVRYTKKVPQVSTPT [ALB408-422, LVRYTKKVPQVSTPT]	remained active		
RYTKKVPQVSTPTL [ALB410-423, RYTKKVPQVSTPTL]	severely impaired or abrogated antiviral activity	> 100	
LVRYTKKA [ALB-V415A, LVRYTKKA]		33	
LVRYTKKVPQVS [ALB408-419, LVRYTKKVPQVS]	remained active	4.4 ± 1	inhibition of dualtropic HIV-1 clone 92ht593.1 [2]: only moderately; effect on R5 tropic HIV-1 infection [3]: no effect; p24 antigen in supernatants (X4 tropic HIV-1 NL4-3 [5]): only marginal p24 levels; block of infection by X4 tropic HIV-1 clones (NL4-3, P51-Sc, P34-s) [4]: almost completely
TKKVPQVSTPTL [ALB412-423, TKKVPQVSTPTL]	severely impaired or abrogated antiviral activity	> 100	
GVRYTKKVPQVS [ALB408G-419, GVRYTKKVPQVS]	inactive peptides		
YTKKVPQVSTPTL [ALB411-423, YTKKVPQVSTPTL]	severely impaired or abrogated antiviral activity		
LVRYTKKV [ALB408-415, LVRYTKKV]	remained active	17.4 ± 6.5	
FVRYTKKVPQVS [ALB408F-419, FVRYTKKVPQVS]	inactive peptides		
IVRYTKKVPQVS [ALB408I-419]		1.55 ± 1.2	inhibition of dualtropic HIV-1 clone 92ht593.1 [2]: only moderately; effect on R5 tropic HIV-1 infection [3]: no effect; p24 antigen in supernatants (X4 tropic HIV-1 NL4-3 [5]): No p24 antigen could be detected; block of infection by X4 tropic HIV-1 clones (NL4-3, P51-Sc, P34-s) [4]: almost completely
AVRYTKKVPQVS [ALB408A-419, AVRYTKKVPQVS]	inactive peptides		
KKVPQVSTPTL [ALB413-423, KKVPQVSTPTL]	severely impaired or abrogated antiviral activity	> 100	
VPQVSTPTL [ALB415-423, VPQVSTPTL]	severely impaired or abrogated antiviral activity	> 100	
LVRYTAKV [ALB-K413A, LVRYTAKV]		56	
LVRYTKKVPQVST [ALB408-420, LVRYTKKVPQVST]	remained active		
